Laboratory results from article PMC5542402 (Combinatorial chemistry & high throughput screening, 2016).
pIC50: −log10 of the molar value. Where two headings read alike, the source gives them in different places.

Key:
PhoP [1] = target: T1, PhoP (Mycobacterium tuberculosis, UniProt P71814, D106C); format: binding
PhoP [2] = target: T1, PhoP; format: binding; remark: listed apart in the source

Molecule	pIC50 (PhoP [1])	pIC50 (PhoP [2])
CCCCCCCCCC(CC)c1ccc(S(=O)(=O)O)cc1 (centres unmarked) [NCGC00244580]	4.45	–
NCGC00161636	–	4.81
